This note sets out measurements from patent US7071205B2 (Ligand Pharmaceuticals Incorporated, priority 2002, dated 2006).

Experiment [1] concerns the target T1, hPR (Homo sapiens, UniProt P06401).
T1 sequence (P06401 1-933): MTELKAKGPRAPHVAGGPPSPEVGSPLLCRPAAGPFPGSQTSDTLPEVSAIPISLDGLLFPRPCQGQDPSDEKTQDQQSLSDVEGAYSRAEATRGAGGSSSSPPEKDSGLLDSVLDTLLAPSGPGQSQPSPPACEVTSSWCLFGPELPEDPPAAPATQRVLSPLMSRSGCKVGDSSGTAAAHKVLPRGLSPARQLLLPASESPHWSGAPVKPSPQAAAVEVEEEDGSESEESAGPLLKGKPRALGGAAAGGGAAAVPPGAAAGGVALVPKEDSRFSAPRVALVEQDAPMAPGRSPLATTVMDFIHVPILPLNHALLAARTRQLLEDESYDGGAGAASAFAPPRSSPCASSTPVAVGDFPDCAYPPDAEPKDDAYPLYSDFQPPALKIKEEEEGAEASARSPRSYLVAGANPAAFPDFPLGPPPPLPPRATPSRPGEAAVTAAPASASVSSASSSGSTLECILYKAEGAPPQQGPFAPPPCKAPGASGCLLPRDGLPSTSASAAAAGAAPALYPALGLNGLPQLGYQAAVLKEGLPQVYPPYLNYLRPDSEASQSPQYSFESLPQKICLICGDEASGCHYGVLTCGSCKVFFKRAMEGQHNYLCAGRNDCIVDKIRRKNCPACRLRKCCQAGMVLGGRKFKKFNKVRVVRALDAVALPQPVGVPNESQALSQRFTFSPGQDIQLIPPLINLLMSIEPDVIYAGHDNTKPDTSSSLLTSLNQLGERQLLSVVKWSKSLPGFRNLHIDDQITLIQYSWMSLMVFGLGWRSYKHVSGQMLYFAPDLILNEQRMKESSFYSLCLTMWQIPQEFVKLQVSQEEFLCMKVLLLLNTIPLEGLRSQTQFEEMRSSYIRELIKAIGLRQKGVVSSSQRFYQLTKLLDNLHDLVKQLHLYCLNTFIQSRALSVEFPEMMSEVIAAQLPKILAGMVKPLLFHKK
Briefly: Cotransfection assay, PR antagonist activity in CV-1 cells. The class given is cell-based. Conditions: for IC50: antagonist potency IC50; for PR Antagonist CV-1 Cells Efficacy (%): percent maximal response relative to reference antagonist.
Method: (§1) All the cotransfection experiments were carried out in 96-well plates by automation (Beckman Biomomek automated workstation).

Experiment [2] addresses T1, hPR. Briefly: Cotransfection assay, PR agonist activity in CV-1 cells. The class given is cell-based. The following applies: for EC50: agonist potency EC50, read-out: PR Agonist CV-1 Cells Potency.
Method: as §1
The target of the next experiment is T2, hPR-A (Homo sapiens, UniProt P06401).
T2 sequence (P06401 1-769 isoform P06401-2): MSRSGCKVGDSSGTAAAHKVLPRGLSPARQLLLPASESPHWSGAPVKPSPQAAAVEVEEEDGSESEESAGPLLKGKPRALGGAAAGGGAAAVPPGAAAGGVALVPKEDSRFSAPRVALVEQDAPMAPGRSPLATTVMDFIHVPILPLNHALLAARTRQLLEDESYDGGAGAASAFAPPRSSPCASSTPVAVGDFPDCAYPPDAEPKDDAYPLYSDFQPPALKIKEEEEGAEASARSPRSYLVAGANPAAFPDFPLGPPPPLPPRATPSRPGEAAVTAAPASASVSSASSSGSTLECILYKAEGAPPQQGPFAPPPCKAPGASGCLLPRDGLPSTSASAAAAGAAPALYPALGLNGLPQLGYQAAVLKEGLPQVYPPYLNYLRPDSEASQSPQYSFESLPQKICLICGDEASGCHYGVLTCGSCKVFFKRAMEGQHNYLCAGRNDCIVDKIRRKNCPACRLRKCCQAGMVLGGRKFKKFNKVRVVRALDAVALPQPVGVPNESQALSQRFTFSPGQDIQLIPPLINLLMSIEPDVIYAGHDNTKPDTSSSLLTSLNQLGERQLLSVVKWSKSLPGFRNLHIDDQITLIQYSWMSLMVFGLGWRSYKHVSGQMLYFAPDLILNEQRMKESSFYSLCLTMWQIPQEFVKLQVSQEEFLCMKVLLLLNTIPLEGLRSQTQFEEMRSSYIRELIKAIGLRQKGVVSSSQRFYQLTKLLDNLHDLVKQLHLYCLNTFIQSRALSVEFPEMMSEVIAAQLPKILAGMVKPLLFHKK
Briefly: Receptor competitive binding assay. Conditions: hPR-A; read-out: PR Binding Ki.

Where [3] appears, read: CV-1 cells, MTV-LUC reporter, percent maximal response relative to progesterone.

Read-outs that look alike come from different tables or passages of the source.

As usually defined, the IC50 is the midpoint of a concentration-inhibition curve. Low values mean inhibition by little substance, high ones a need for much substance. What is called Ki is the equilibrium dissociation constant of an inhibitor or competing ligand from its target. Take `CC1=CC(C2Oc3ccc(F)cc3-c3ccc4c(c32)C(C)=CC(C)(C)N4)CCC1` (racemic) [Compound 25, (±)-(5l,1′u)-5-(3-methyl-2-cyclohexenyl)-9-fluoro-1,2-dihydro-2,2,4-trimethyl-5H-chromeno[3,4-f]quinoline]: on hPR [1], the IC50 is greater than 10000 nM; the “PR Antagonist CV-1 Cells Efficacy (%)” value is “na (na = not active (i.e. efficacy of <20 and potency of >10,000))”. For the same compound, at hPR [2] (setting [3]), the “PR Agonist CV-1 Cells Efficacy (%)” value is given as 86%. Besides, the EC50 at hPR [2] (CV-1 cells) came to 9.7 nM. Besides, the Ki on hPR-A is 6.3 nM.

In the case of `CC1=C[C@@H]([C@H]2Oc3c(F)cc(F)cc3-c3ccc4c(c32)C(C)=CC(C)(C)N4)CCC1` (racemic) [Compound 35, (±)-(5l,1′u)-5-(3-methyl-2-cyclohexenyl)-7,9-difluoro-1,2-dihydro-2,2,4-trimethyl-5H-chromeno[3,4-f]quinoline], the “PR Antagonist CV-1 Cells Efficacy (%)” value on hPR [1] was “na (na = not active (i.e. efficacy of <20 and potency of >10,000))”. On hPR [2] (setting [3]), the “PR Agonist CV-1 Cells Efficacy (%)” value came out at 100%.

`CC1=C[C@H]([C@H]2Oc3ccc(F)cc3-c3ccc4c(c32)C=CC(C)(C)N4)CCC1` (racemic) [Compound 41, (±)-(5l,1′l)-5-(3-methyl-2-cyclohexenyl)-9-fluoro-1,2-dihydro-2,2-dimethyl-5H-chromeno[3,4-f]quinoline]: at hPR [1], the IC50 is greater than 10000 nM; the “PR Antagonist CV-1 Cells Efficacy (%)” value is “na (na = not active (i.e. efficacy of <20 and potency of >10,000))”. In addition, the “PR Agonist CV-1 Cells Efficacy (%)” value on hPR [2] (setting [3]) is listed as 122%. Also, the EC50 at hPR [2] (CV-1 cells) came out at 10 nM. The Ki on hPR-A was 11 nM.

Take `CC1=C[C@@H]([C@H]2Oc3ccc(F)cc3-c3ccc4c(c32)C=CC(C)(C)N4)CCC1` (racemic) [Compound 42, (±)-(5l,1′u)-5-(3-methyl-2-cyclohexenyl)-9-fluoro-1,2-dihydro-2,2-dimethyl-5H-chromeno[3,4-f]quinoline]: at hPR [1], the IC50 is greater than 10000 nM; the “PR Antagonist CV-1 Cells Efficacy (%)” value was “na (na = not active (i.e. efficacy of <20 and potency of >10,000))”. Moreover, the “PR Agonist CV-1 Cells Efficacy (%)” value on hPR [2] (setting [3]) came out at 27%. Besides, the EC50 at hPR [2] (CV-1 cells) came out at 38 nM. Moreover, the inhibition constant Ki at hPR-A worked out at 143 nM.

Take `CC1=CC(C2Oc3ccc(F)cc3-c3ccc4c(c32)C(C)=CC(C)(C)N4)CC1` (racemic) [Compound 44, (±)-(5l,1′l)-5-(3-methyl-2-cyclopentenyl)-9-fluoro-1,2-dihydro-2,2,4-trimethyl-5H-chromeno[3,4-f]quinoline]: on hPR [1], the 50% inhibitory concentration (IC50) is greater than 10000 nM; the “PR Antagonist CV-1 Cells Efficacy (%)” value is “na (na = not active (i.e. efficacy of <20 and potency of >10,000))”. The “PR Agonist CV-1 Cells Efficacy (%)” value at hPR [2] (setting [3]) is 123%. For the same compound, on hPR [2] (CV-1 cells), the EC50 came to 6.7 nM. In addition, on hPR-A, the Ki was determined as 7.7 nM.

As for `CC1=CC(C2Oc3ccc(F)cc3-c3ccc4c(c32)C(C)=CC(C)(C)N4)CC1` (racemic) [Compound 45, (±)-(5l,1′u)-5-(3-methyl-2-cyclopentenyl)-9-fluoro-1,2-dihydro-2,2,4-trimethyl-5H-chromeno[3,4-f]quinoline], at hPR [1], the concentration for half-maximal inhibition (IC50) was greater than 10000 nM; the “PR Antagonist CV-1 Cells Efficacy (%)” value was “na (na = not active (i.e. efficacy of <20 and potency of >10,000))”. For the same compound, the “PR Agonist CV-1 Cells Efficacy (%)” value on hPR [2] (setting [3]) was determined as 94%. Further, on hPR [2] (CV-1 cells), the EC50 turned out to be 9.1 nM. Also, the Ki on hPR-A came to 17 nM.

Turning to `COc1cc2c(cc1F)-c1ccc3c(c1C(C1C=C(C)CCC1)O2)C(C)=CC(C)(C)N3` (racemic) [Compound 64, (±)-(5l,1′l)-5-(3-methyl-2-cyclohexenyl)-9-fluoro-1,2-dihydro-8-methoxy-2,2,4-trimethyl-5H-chromeno[3,4-f]quinoline], at hPR [1], the IC50 worked out at 1900 nM and the “PR Antagonist CV-1 Cells Efficacy (%)” value came to 80%. In addition, on hPR [2] (setting [3]), the “PR Agonist CV-1 Cells Efficacy (%)” value is “na (na = not active (i.e. efficacy of <20 and potency of >10,000))”. Further, the EC50 on hPR [2] (CV-1 cells) is greater than 10000 nM. Besides, on hPR-A, the Ki turned out to be 485 nM.

`COc1cc2c(cc1F)-c1ccc3c(c1C(C1C=C(C)CCC1)O2)C(C)=CC(C)(C)N3` (racemic) [Compound 65, (±)-(5l,1′u)-5-(3-methyl-2-cyclohexenyl)-9-fluoro-1,2-dihydro-8-methoxy-2,2,4-trimethyl-5H-chromeno[3,4-f]quinoline]: at hPR [1], inhibition was half-maximal at 650 nM (IC50) and the “PR Antagonist CV-1 Cells Efficacy (%)” value was 59%. In addition, the “PR Agonist CV-1 Cells Efficacy (%)” value on hPR [2] (setting [3]) was “na (na = not active (i.e. efficacy of <20 and potency of >10,000))”. For the same compound, the EC50 at hPR [2] (CV-1 cells) is greater than 10000 nM. The inhibitory constant (Ki) on hPR-A stood at 329 nM.

`CC1=CC(C2Oc3ccc(F)cc3-c3ccc4c(c32)C(C)=CC(C)(C)N4)CCC1` (single isomer, unassigned; (+)) [Compound 27, (+)-(5l,1′l)-5-(3-methyl-2-cyclohexenyl)-9-fluoro-1,2-dihydro-2,2,4-trimethyl-5H-chromeno[3,4-f]quinoline]: on hPR [1], the 50% inhibitory concentration (IC50) was greater than 10000 nM; the “PR Antagonist CV-1 Cells Efficacy (%)” value is “na (na = not active (i.e. efficacy of <20 and potency of >10,000))”. Besides, on hPR [2] (setting [3]), the “PR Agonist CV-1 Cells Efficacy (%)” value came out at 68%. Further, the EC50 at hPR [2] (CV-1 cells) amounted to 43 nM. Besides, the inhibitory constant (Ki) on hPR-A turned out to be 241 nM.

Turning to `CC1=CC(C2Oc3c(F)cc(F)cc3-c3ccc4c(c32)C(C)=CC(C)(C)N4)CCC1` (single isomer, unassigned; (+)) [Compound 37, (+)-(5l,1′l)-5-(3-methyl-2-cyclohexenyl)-7,9-difluoro-1,2-dihydro-2,2,4-trimethyl-5H-chromeno[3,4-f]quinoline], the “PR Antagonist CV-1 Cells Efficacy (%)” value on hPR [1] worked out at 50%. The “PR Agonist CV-1 Cells Efficacy (%)” value on hPR [2] (setting [3]) is “na (na = not active (i.e. efficacy of <20 and potency of >10,000))”.

Turning to `CC1=CC(C2Oc3ccc(F)cc3-c3ccc4c(c32)C(C)=CC(C)(C)N4)CCC1` (single isomer, unassigned; (-)) [Compound 28, (−)-(5l,1′l)-5-(3-methyl-2-cyclohexenyl)-9-fluoro-1,2-dihydro-2,2,4-trimethyl-5H-chromeno[3,4-f]quinoline], on hPR [1], the 50% inhibitory concentration (IC50) is greater than 10000 nM; the “PR Antagonist CV-1 Cells Efficacy (%)” value was “na (na = not active (i.e. efficacy of <20 and potency of >10,000))”. The “PR Agonist CV-1 Cells Efficacy (%)” value at hPR [2] (setting [3]) amounted to 171%. For the same compound, the EC50 at hPR [2] (CV-1 cells) came to 0.9 nM. The Ki on hPR-A is 2 nM.

With `CC(=O)[C@H]1CC[C@H]2[C@@H]3CCC4=CC(=O)CC[C@]4(C)[C@H]3CC[C@]12C` [Prog, progesterone, reference compound], the “PR Agonist CV-1 Cells Efficacy (%)” value on hPR [2] (setting [3]) is reported as 100%.

`CC#C[C@]1(O)CC[C@H]2[C@@H]3CCC4=CC(=O)CCC4=C3[C@@H](c3ccc(N(C)C)cc3)C[C@@]21C` [RU486, mifepristone, reference compound]: the “PR Agonist CV-1 Cells Efficacy (%)” value on hPR [2] is “na (key: na = not active (i.e. efficacy of <20 and potency of >10,000))”.

For `CN(C)c1ccc([C@H]2C[C@]3(C)[C@@H](CC[C@]3(O)CCCO)[C@@H]3CCC4=CC(=O)CCC4=C32)cc1` [ZK299, reference compound], on hPR [1], the “PR Antagonist CV-1 Cells Efficacy (%)” value was 99%.
